Broadly, the IC50 is the concentration that gives 50% inhibition.

The test system of data set [1] is HL-60. As to the kind of experiment: Antiproliferative activity against human HL-60 cells assessed as reduction in cell growth after 24 hrs by MTS assay. The format is functional, cell-based. Particulars: HL-60, 24 h. (In general: Tetrazolium dyes change colour on reduction, which living cells bring about.)
Data set [2] deals with MCF7. As to the kind of experiment: Antiproliferative activity against human MCF7 cells assessed as reduction in cell growth after 24 hrs by MTS assay. The format is functional, cell-based. To be noted: MCF7, 24 h.
The subject of data set [3] is T47D. As to the kind of experiment: Antiproliferative activity against human T47D cells assessed as reduction in cell growth after 24 hrs by MTS assay. The data set is classed as functional, cell-based.
Data set [4] deals with LNCaP. As to the kind of experiment: Antiproliferative activity against human LNCAP cells assessed as reduction in cell growth after 24 hrs by MTS assay. The format is functional, cell-based.
Data set [5] is described as follows: Cytotoxicity against mouse WEHI13 cells assessed as cell proliferation after 48 hrs by MTT assay. Particulars: WEHI13, 48 h. The data set is classed as cell-based.
Data set [6] in a line: Plasma concentration in Sprague-Dawley rat at 2.3 mg/kg, sc measured at 3 hrs by LC/MS/MS analysis. The format is ADME, organism-based. Also on record: dose 2.3 mg/kg, route subcutaneous.
The nature of data set [7]: Plasma concentration in Sprague-Dawley rat at 2.3 mg/kg, sc measured at 12 hrs by LC/MS/MS analysis. The format is ADME, organism-based. Set-up: dose 2.3 mg/kg, route subcutaneous.

Molecules are shown by their SMILES.

As for `C#C[C@]1(O)CC[C@H]2[C@@H]3CC[C@H]4C[C@H](O)[C@@H](N5CCN(C(=O)[C@@H]6CCCN6C(=O)c6cccc7ccccc67)CC5)C[C@]4(C)[C@H]3CC[C@@]21C`, the IC50 in data set [1] is 7000 nM; in data set [2] it was 2300 nM; in data set [3], 8000 nM; in data set [4] it was 12000 nM.

As for `C[C@]12C[C@H](N3CCN(C(=O)[C@@H]4CCCN4C(=O)c4ccc5ccccc5c4)CC3)[C@@H](O)C[C@@H]1CC[C@@H]1[C@@H]2CC[C@]2(C)[C@@H](O)CC[C@@H]12`, the IC50 in data set [5] was above 10000 nM; in data set [1], 400 nM; in data set [2], 500 nM; in data set [3] it was 400 nM; in data set [4], 1600 nM. In addition, the concentration at 3 h in data set [6] was found to be 64.8 ng/mL. In data set [7], this compound gave a concentration at 12 h of 8.8 ng/mL.

As to `C[C@]12C[C@H](N3CCN(C(=O)[C@@H]4CCCN4C(=O)C4CCCCC4)CC3)[C@@H](O)C[C@@H]1CC[C@@H]1[C@@H]2CC[C@]2(C)[C@@H](O)CC[C@@H]12`, the IC50 in data set [5] came to 2700 nM.

With `C[C@]12C[C@H](N3CCN(C(=O)[C@@H]4CCCN4C(=O)c4cccc5ccccc45)CC3)[C@@H](O)C[C@@H]1CC[C@@H]1[C@@H]2CC[C@]2(C)[C@@H](O)CC[C@@H]12`, the IC50 in data set [1] was found to be 3700 nM; in data set [2], 4800 nM; in data set [3] it was 5000 nM; in data set [4], 300 nM.

On to `C[C@]12C[C@H](N3CCN(C(=O)[C@@H]4CCCN4C(=O)c4cc5ccccc5cn4)CC3)[C@@H](O)C[C@@H]1CC[C@@H]1[C@@H]2CC[C@]2(C)[C@@H](O)CC[C@@H]12`, for which the IC50 in data set [5] came to 3000 nM; in data set [1] it was 1400 nM; in data set [2], 100 nM; in data set [3], 200 nM; in data set [4] it was 70 nM. In data set [6], this compound yielded a concentration at 3 h of 123 ng/mL. In data set [7], this compound had a concentration at 12 h of 2.7 ng/mL.

For `C[C@]12C[C@H](N3CCN(C(=O)[C@@H]4CCCN4C(=O)c4ccc5ncccc5c4)CC3)[C@@H](O)C[C@@H]1CC[C@@H]1[C@@H]2CC[C@]2(C)[C@@H](O)CC[C@@H]12`, the IC50 in data set [1] is 4700 nM; in data set [2] it was 4900 nM; in data set [3], 7000 nM; in data set [4], above 10000 nM. Besides, the concentration at 3 h in data set [6] is 194 ng/mL. Also, in data set [7], the concentration at 12 h worked out at 1.3 ng/mL.

Regarding `C[C@]12C[C@H](N3CCN(C(=O)[C@@H]4CCCN4C(=O)c4ccc5ccccc5n4)CC3)[C@@H](O)C[C@@H]1CC[C@@H]1[C@@H]2CC[C@]2(C)[C@@H](O)CC[C@@H]12`, the IC50 was 1600 nM in data set [1], 100 nM in data set [2], 100 nM in data set [3] and 40 nM in data set [4]. The concentration at 3 h in data set [6] amounted to 163 ng/mL. In data set [7], the concentration at 12 h worked out at 3.1 ng/mL.

On to `CO[C@H]1CC[C@H]2[C@@H]3CC[C@H]4C[C@H](O)[C@@H](N5CCN(C(=O)[C@@H]6CCCN6C(=O)c6ccc7ccccc7c6)CC5)C[C@]4(C)[C@H]3CC[C@]12C`, for which the IC50 stood at 4500 nM in data set [1], 4500 nM in data set [2], 5000 nM in data set [3] and 7000 nM in data set [4]. In data set [6], this compound came in with a concentration at 3 h of 33.3 ng/mL. In data set [7], this compound returned a concentration at 12 h of 7.6 ng/mL.

As to `C[C@]12C[C@H](N3CCN(C(=O)[C@@H]4CCCN4C(=O)c4ccc5ccccc5c4)CC3)[C@@H](O)C[C@@H]1CC[C@@H]1[C@@H]2CC[C@@]2(C)[C@H]1CC[C@]2(C)O`, the IC50 is 4700 nM in data set [1], 1200 nM in data set [2], 2000 nM in data set [3] and above 10000 nM in data set [4]. Also, the concentration at 3 h in data set [6] came to 122 ng/mL. In data set [7], this compound registered a concentration at 12 h of 32 ng/mL.

With `C[C@]12C[C@H](N3CCN(C(=O)[C@@H]4CCCN4C(=O)c4cc5ccccc5[n+]([O-])c4)CC3)[C@@H](O)C[C@@H]1CC[C@@H]1[C@@H]2CC[C@]2(C)[C@@H](O)CC[C@@H]12`, the IC50 was 800 nM in data set [1], 900 nM in data set [2], 1000 nM in data set [3] and above 10000 nM in data set [4]. The compound further gave a concentration at 3 h in data set [6] of 158 ng/mL. In data set [7], this compound came in with a concentration at 12 h of 2.9 ng/mL.

On to `COc1cccc2c1C(=O)c1c(O)c3c(c(O)c1C2=O)C[C@@](O)(C(=O)CO)C[C@@H]3O[C@H]1C[C@H](N)[C@H](O)[C@H](C)O1` [DOXORUBICIN], for which the IC50 in data set [5] is 20 nM; in data set [1], 700 nM; in data set [2] it was above 10000 nM; in data set [3], 700 nM; in data set [4], 200 nM.

`C[C@]12C[C@H](N3CCN(C(=O)[C@@H]4CCCN4C(=O)c4ccc5ccccc5n4)CC3)[C@@H](O)C[C@@H]1CC[C@@H]1[C@@H]2CC[C@]2(C)C(=O)CC[C@@H]12`: the IC50 in data set [1] is 600 nM; in data set [2], 1000 nM; in data set [3] it was 700 nM; in data set [4], 800 nM. Besides, in data set [6], the concentration at 3 h turned out to be 188 ng/mL. The same compound returned a concentration at 12 h in data set [7] of 0.3 ng/mL.

`C[C@]12CC[C@@H](O)C[C@@H]1CC[C@@H]1[C@@H]2CC[C@]2(C)[C@@H](O)CC[C@@H]12` [ANDROSTANDIOL]: in data set [5], the IC50 is above 10000 nM.

For the compound `C[C@]12C[C@H](N3CCN(C(=O)[C@@H]4CCCN4C(=O)c4cccc5ccccc45)CC3)[C@@H](O)C[C@@H]1CC[C@@H]1[C@@H]2CC[C@]2(C)C(=O)CC[C@@H]12`, the IC50 in data set [1] was found to be 8500 nM; in data set [2], 8000 nM; in data set [3], 7000 nM; in data set [4], 10000 nM.

Turning to `C[C@]12C[C@H](N3CCN(C(=O)[C@@H]4CCCN4C(=O)c4cnc5ccccc5c4)CC3)[C@@H](O)C[C@@H]1CC[C@@H]1[C@@H]2CC[C@]2(C)[C@@H](O)CC[C@@H]12`, the IC50 in data set [1] was 4000 nM; in data set [2], 1200 nM; in data set [3] it was 7000 nM; in data set [4] it was above 10000 nM. The same compound registered a concentration at 3 h in data set [6] of 163 ng/mL. In addition, in data set [7], the concentration at 12 h amounted to 2.3 ng/mL.

As for `C#C[C@]1(O)CC[C@H]2[C@@H]3CC[C@H]4C[C@H](O)[C@@H](N5CCN(C(=O)[C@@H]6CCCN6C(=O)c6ccc7ccccc7c6)CC5)C[C@]4(C)[C@H]3CC[C@@]21C`, the IC50 is 1700 nM in data set [5]; 1900 nM in data set [1]; 300 nM in data set [2]; 300 nM in data set [3]; 4500 nM in data set [4]. This compound also had a concentration at 3 h in data set [6] of 185 ng/mL. The compound also came in with a concentration at 12 h in data set [7] of 50.2 ng/mL.

The record behind these values is ChEMBL document CHEMBL3351452, “Chemical synthesis, cytotoxicity, selectivity and bioavailability of 5α-androstane-3α,17β-diol derivatives” (Bioorg Med Chem, 2014).
